These are literature values, as cited in US20040202714A1, “Oral pharmaceutical composition” (Daiichi Suntory Pharma Co., Ltd., priority 1999, published 2004).

Each structure is given as a SMILES string.

For data set [1], the system named is methicillin-sensitive Staphylococcus aureus (MSSA).
Data set [2] concerns Streptococcus pyrogenes.
The test system of data set [3] is Streptococcus pneumoniae.
Data set [4] concerns penicillin-resistant pneumococci (PRSP).
Data set [5] concerns oral staphylococci.
For data set [6], the system named is enterococci.
The test system of data set [7] is Haemophilus influenzae. To be noted: gram-negative bacteria such as Haemophilus influenzae.
In data set [8] the test system is genus Bacteroides. The conditions noted are these: anaerobic bacteria such as the genus Bacteroides.
The subject of data set [9] is Porphyromonas gingivalis. The conditions noted are these: pathogenic bacteria of periodontis.
Data set [10] relates to bacterial strains from dental infectious diseases. The conditions noted are these: increasingly resistant strains from dental infectious diseases.

As for `C[C@@H](O)[C@H]1C(=O)N2C(C(=O)O)=C([C@H]3CCCO3)S[C@H]12` [Compound 1, sodium (+)-(5R, 6S)-6-[(R)-1-hydroxyethyl]-7-oxo-3-[(R)-2-tetrahydrofuryl]4-thia-1-azabicyclo [3.2.0] hept-2-ene-2-carboxylate 5/2 hydrate], the antibacterial activity entry in data set [1], in data set [2], in [3], in data set [4], in [5] and in data set [6] was “potent antibacterial activity” in each case. Besides, the antibacterial activity result in [9] and in data set [10] was “potent antibacterial activity” in each case. Also, the antibacterial spectrum result in data set [7] and in data set [8] was “wide antibacterial spectrum” in each case.
